Values of other authors in patent publication US20210113664A1, “IMPLANTS FOR RELEASE OF LIPOPHILIC OR AMPHIPHILIC PHARMACEUTICAL SUBSTANCES” (Titan Pharmaceuticals, Inc., priority 2018, published 2021).

Details: values as reported by PubChem

Row | SMILES | log Poct
1 | CC#CCC(C)[C@H](O)/C=C/[C@@H]1[C@H]2C/C(=C/CCCC(=O)O)C[C@H]2C[C@H]1O (some centres unmarked) [iloprost] | about 4.8
2 | N[C@@H](Cc1cc(I)c(Oc2cc(I)c(O)c(I)c2)c(I)c1)C(=O)O [levothyroxine] | about 4
